Data on two compounds can be found in paper PMC12691742, “Anti-Cancer Outcome of Glucocorticoid Receptor Transrepression by Synephrine Derivatives in Hematological Malignancies” (International Journal of Molecular Sciences, 2025).

Broadly, the IC50 is the midpoint of a concentration-inhibition curve.

The subject of series [1] is leukemia and lymphoma cells (Granta, K562). Also on record: method as in PMID 39858397. The note with it: leukemia and lymphoma cells; read-out: cell viability IC50; cited from earlier work.
For series [2], the system named is GR phosphorylated by Ser211 in K562 and Granta cells. Description: Western blot of nuclear phospho-GR (Ser211). In kind it is cell-based. The note with it: 10 h; Dex 10 µM, 4S-C2 50 µM, 8S-E3 50 µM, 10S-E2 15 µM, 13S-G2 25 µM. On the procedure: (§1) Figure 3 Effects of synephrine derivatives on GR transactivation in Granta lymphoma and K562 leukemia cells. (A) Q-PCR analysis of FKBP51, GILZ, and DDIT4 mRNA expression in K562 and Granta cells. […] The Q-PCR results were normalized to the expression of the housekeeping gene RPL27 and are presented as fold changes compared to the control. The mean ± SD was calculated for three individual samples/condition (n = 3). Statistically significant differences compared to the control: * p < 0.05, ** p < 0.01. (B) The levels of the nuclear fraction of phospho-GR (Ser211) were determined using Western blot analysis (n = 3; characteristic images are presented in the figure). Histone H3 was used as a loading control.
Western blot analysis was performed as previously described. Proteins were resolved using SDS-PAGE. Membranes were blocked with 5% nonfat milk solution and then incubated with primary antibodies against phosphorylated GR (pGR, Ser211) (“Santa Cruz Biotechnology”, Santa Cruz, CA, USA) overnight at 4 °C. To verify equal protein loading and adequate transfer, the membranes were probed with Histone H3 antibodies (“Cell Signaling”, Boston, MA, USA). Goat anti-rabbit IgGs (“Jackson Immuno Research”, West Grove, PA, USA) were used as secondary antibodies. Signals were detected using ECL reagent and an ImageQuant LAS4000 system (“GE HealthCare”, Chicago, IL, USA). ImageJ 1.54h software was used for densitometry. The experiments were performed in triplicate.
7 K562, pGR nuclear 5 Granta, pGR nuclear
Supplementary Figure S 22. Quantification of Western blot analysis. K562 and Granta cells […]
μM) and 13S-G2 (25 μ M) for 10 h. Quantification of Western blot anal ysis of p- GR protein levels was done usin g Im a ge J f ree so ftwar e. Statisticall y significant diff eren ces as compared to control: […]
Background: Immunoblotting shows a protein as a band on a membrane.

Series [3] deals with DDIT4 expression in Granta cells. Description: Q-PCR of DDIT4 in Granta cells. The class given is cell-based. The note with it: 24 h, 8S-E3 25 µM.
Excerpt: (§2) Q-PCR results were confirmed by Western blot analysis of the level of GR phosphorylated by Ser211, known as a crucial protein modification for GR TA realization because of its binding to short cysteine-rich fragments of the coactivator CREB-binding protein [41].
as §1
(§3) Total RNA isolation from cell cultures and murine bones, reverse transcription, and Q-PCR were performed as described in [36]. Primers were designed using NCBI Primer-BLAST https://www.ncbi.nlm.nih.gov/tools/primer-blast/, accessed on 25 August 2025 (Supplementary Table S1). Results were normalized to the expression of the housekeeping RPL27 и Rpl27 genes. The experiments were performed in triplicate.

Series [4] relates to DDIT4 expression in K562 cells. In words: Q-PCR of DDIT4 in K562 cells. The class given is cell-based. The note with it: 24 h, 8S-E3 25 µM.
Excerpt: as §2, §1, §3

Another series deals with T1, GR (Homo sapiens, UniProt P04150).
T1 construct: endogenous in cells; host or cells: K562
T1 sequence (P04150 1-777): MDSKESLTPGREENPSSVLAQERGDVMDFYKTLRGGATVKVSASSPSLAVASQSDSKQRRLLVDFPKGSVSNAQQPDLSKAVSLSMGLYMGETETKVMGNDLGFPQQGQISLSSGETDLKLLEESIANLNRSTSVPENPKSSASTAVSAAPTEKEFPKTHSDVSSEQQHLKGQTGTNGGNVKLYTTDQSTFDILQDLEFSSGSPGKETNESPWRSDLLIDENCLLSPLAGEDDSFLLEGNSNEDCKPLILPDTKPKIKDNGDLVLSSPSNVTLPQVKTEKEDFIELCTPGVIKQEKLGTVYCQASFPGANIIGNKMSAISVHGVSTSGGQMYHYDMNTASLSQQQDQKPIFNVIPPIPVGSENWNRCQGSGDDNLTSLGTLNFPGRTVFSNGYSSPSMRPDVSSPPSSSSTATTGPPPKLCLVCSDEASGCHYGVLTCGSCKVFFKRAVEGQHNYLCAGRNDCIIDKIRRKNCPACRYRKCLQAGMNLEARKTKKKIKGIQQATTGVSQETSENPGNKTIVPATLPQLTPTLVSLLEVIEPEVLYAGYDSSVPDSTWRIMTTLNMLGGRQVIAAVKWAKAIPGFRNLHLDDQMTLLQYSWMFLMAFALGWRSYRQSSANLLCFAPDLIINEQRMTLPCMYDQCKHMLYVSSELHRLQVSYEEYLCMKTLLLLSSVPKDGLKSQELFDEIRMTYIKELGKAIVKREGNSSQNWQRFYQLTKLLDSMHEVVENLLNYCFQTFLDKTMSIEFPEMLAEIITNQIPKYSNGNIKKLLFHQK
In words: GR radioligand binding assay, competition with [3H]Dex in K562 cells. As to the method:
(A,B). […] The stability of the complex was simulated using molecular dynamics in the GROMACS program. (C) GR binding affinity was estimated using a radioligand binding assay. […] Cell lysate radioactivity was measured using a RackBeta 1215 LC (LKB Wallac, Turku, Finland) spectrometer for 4 min. […] The experiments were performed in triplicate (n = 3).
After 90 min of incubation, the cells were washed twice by centrifugation in cold serum-free medium (1500 rpm, 5 min). The cells were then lysed with RIPA buffer (50 mM Tris (pH 8.0), 150 mM NaCl, 1 mM ethylenediaminetetraacetic acid, 0.1% sodium dodecyl sulfate, 0.5% sodium deoxycholate, 1% triton-X100, 10% glycerin, and protease inhibitor) for 20 min. Lysates were transferred to scintillation liquid, and radioactivity was measured using a RackBeta 1215 LC spectrometer for 4 min. […] IC50 was determined using GraphPad Prism software, Ver.7.0. […] “Top” meant the highest value in dpm and was equal to 100%, while the “bottom” was considered as the lowest value (0%). […] The IC50 values for each ligand were determined by plotting these curves. The experiments were performed in triplicate.

The test system of a further series is Granta cells. In words: Cell cycle analysis by PI flow cytometry in Granta cells. The class given is cell-based. The note with it: 24 h, Dex 50 µM, 4S-C2 25 µM, 8S-E3 12.5 µM, 10S-E2 6.25 µM, 13S-G2 1 µM. On the procedure: (§4) Figure 5 Pro-apoptotic and anti-cancer effects of synephrine derivatives in vitro and in vivo. (A) Effect of 4S-C2, 8S-E3, 10S-E2, and 13S-G2 on cell cycle progression in K562 and Granta cells after 24 h of incubation. The cells were fixed with ethanol, stained with propidium iodide, and analyzed using flow cytometry. Statistically significant difference compared to control: *—p < 0.05, **—p < 0.01 (n = 3). (B) In vivo anti-cancer activity was evaluated using the transplantable P388 murine lymphoma model. […] Tumor nodule size was measured twice a week using digital calipers. Statistically significant differences compared to the control: * p < 0.05, ** p < 0.01.
The distribution of cells by cell cycle phases was evaluated using propidium iodide (PI) staining, as described in [19]. […] After incubation, the cells were resuspended in 70% ethanol and fixed for 2h at 4 °C. Cells were then washed twice with cold PBS, pH 7.4, and stained with 500 µL of cold propidium iodide (PI) solution (50 µg/mL PI, 1% Triton X-100, and 100 µg/mL RNase A in PBS). The cell cycle distribution of cells in samples was analyzed using an FACSCalibur Flow Cytometer (“BD Biosciences”, San Jose, CA, USA). The experiments were performed in triplicate.
For orientation: In flow cytometry, cells or beads pass a laser one at a time.

The subject of a further series is BALB/c female mice. Description: Glucocorticoid-induced osteoporosis model: bone and skin morphometry, body weight. In kind it is in vivo. The note with it: Dex 20 mg/kg. From the text:
(§5) (A) H&E bone staining and quantification of cortical bone thickness. (B) Q-PCR analysis of Rankl, Mmp9, Tsc2, Trap, and Bglap mRNA expression in bone tissue. […] (C) H&E skin staining and quantification of dermal adipose thickness (50 images per treatment group of 10 animals). Statistically significant differences compared to the control: * p < 0.05, ** p < 0.01.
(§6) The protocol for the experiment was approved by the local N.N. Blokhin National Medical Research Center Ethics Committee and corresponded to the guidelines for the welfare and use of animals in cancer research adopted by The United Kingdom Coordinating Committee on Cancer Prevention Research. […] Body weight was recorded twice a week for toxicity control.
Bone and skin samples from the GIOP experiment were fixed in formaldehyde and embedded in paraffin, and sections were stained with hematoxylin and eosin. After formaldehyde fixation, the bone samples were decalcified in decalcification buffer (0.5 M EDTA, 0.7 mM NaOH, pH7.0) for 14 days, washed twice with PBS, and further processed according to the standard histology protocol. The dermal adipose and bone thickness were quantified in sections stained with hematoxylin and eosin. At least five individual fields per slide of each sample/treatment (at least 50 images/treatment group) were analyzed using Axioplan2 microscope software (“Carl Zeiss”, Jena, Germany). The dermal adipose or bone thickness in treated animals is presented as a percentage of the control animals.

Series [5] concerns FKBP51, GILZ, DDIT4 mRNA expression in K562 and Granta cells. Description: Q-PCR of GR transactivation marker genes. The class given is cell-based. The note with it: 4 h (FKBP51, GILZ) or 24 h (DDIT4); Dex 10 µM, 10S-E2 0.1 µM; vs control.
Excerpt: as §2, §1, §3

In series [6] the test system is Rankl, Mmp9, Tsc2, Trap, Bglap mRNA expression in bone tissue. Description: Glucocorticoid-induced osteoporosis model: Q-PCR of marker genes in bone tissue. In kind it is in vivo, mice. The note with it: 5 weeks, Dex 20 mg/kg. On the procedure:
as §5
Total RNA isolation from cell cultures and murine bones, reverse transcription, and Q-PCR were performed as described in [36]. […] Results were normalized to the expression of the housekeeping RPL27 и Rpl27 genes. The experiments were performed in triplicate.
as §6

A further series relates to P388 murine lymphoma. In words: Transplantable P388 murine lymphoma model. The class given is in vivo, mice. The note with it: Dex 1 mg/kg. On the procedure:
as §4
The protocol for the experiment was approved by the local N.N. Blokhin National Medical Research Center Ethics Committee and corresponded to the guidelines for the welfare and use of animals in cancer research adopted by The United Kingdom Coordinating Committee on Cancer Prevention Research. P388 cells were injected i.p. into 5-week-old female DBA/2 mice (“Stolbovaya Farm”, Stolbovaya, Russia). After 15 days, the cells were collected from the peritoneum, washed, and resuspended in PBS. For the experiments, 0.1 mL containing 2 million cells obtained from the ascites was inoculated s.c. in 5-week-old female BDF1 mice (“Stolbovaya Farm”, Stolbovaya, Russia). […] Body weight was recorded twice a week for toxicity determination. Tumor size was measured three times per week using digital calipers.

Where [7] appears, read: i.p. every 24 h for 5 weeks, 10S-E2 10 mg/kg.

“Also recorded” adds a separate entry of the source.

As to `OCCNCC(O)c1ccc(OCc2ccccc2)cc1` (stereo not drawn) [8S-E3, 1-(4-(benzyloxy)phenyl)-2-((2-hydroxyethyl)amino)ethanol], the IC50 in [1] is 80 to 120 µM; on GR, 0.08 µM. The “GR phosphorylation level at Ser211” value in [2] was “weak increase”. The “decrease in DDIT4 expression” value in series [3] is reported as 1,5 fold. In series [4], the DDIT4 expression result is “strongly attenuated DDIT4 expression by more than three times”.

As to `C[C@@H]1C[C@H]2[C@@H]3CCC4=CC(=O)C=C[C@]4(C)[C@@]3(F)[C@@H](O)C[C@]2(C)[C@@]1(O)C(=O)CO` [Dex, dexamethasone, reference compound], the “level of apoptosis (sub-G1-phase cell population)” value in the series with Granta cells is given as “higher than that in the control samples”. Moreover, the “animal body weight vs control” value with BALB/c female mice (GIOP study, 10S-E2 10 mg/kg i.p. every 24 h for 5 weeks) is on record as “no statisticall y si gnificant differences; also recorded: similar”. Further, in the series on BALB/c female mice (setting [7]), the “loss of cortical bone thickness” value was 30% and the “reduction of dermal adipose tissue / skin atrophy” value was “approximately 70%”. Also, in series [2], the “GR phosphorylation level at Ser211” value is recorded as “weak increase”. Moreover, the “expression of TA marker genes FKBP51, GILZ, DDIT4” value in series [5] was 5-30 fold. Moreover, the “Bglap mRNA expression in bone tissue” value in series [6] is recorded as “Downregulation”. Moreover, in [6] (10S-E2 10 mg/kg), the “Mmp9 mRNA expression in bone tissue” value is “tendency toward Mmp9 and Tsc2 upregulation”; the “Rankl mRNA expression in bone tissue” value is “upregulation”; the “Trap mRNA expression in bone tissue” value was “upregulation”; the “Tsc2 mRNA expression in bone tissue” value was “tendency toward Mmp9 and Tsc2 upregulation”. Also, the “animal body weight change vs control” value in the series with P388 murine lymphoma (P388 model, 10S-E2 10 mg/kg i.p. 3 times per week) is given as “no statisticall y si gnificant differences”. Further, in the series on P388 murine lymphoma (s.c. P388 in BDF1 mice, i.p. 3 times per week, 10S-E2 10 mg/kg), the “inhibition of tumor growth” value was 60–70%.
